Data published in ChEMBL document CHEMBL3797054, “Discovery of a series of 8-(2,3-dihydro-1,4-benzoxazin-4-ylmethyl)-2-morpholino-4-oxo-chromene-6-carboxamides as PI3Kβ/δ inhibitors for the treatment of PTEN-deficient tumours” (Bioorg Med Chem Lett, 2016).

Experiments:
[1] = AUC in hairy mouse at 30 umol/kg, po; format: ADME, organism-based; conditions: in vivo
[2] = Intrinsic clearance in human hepatocytes assessed per million cells; format: ADME, cell-based, Hepatocyte; conditions: read-out: CLH
physchem = conditions: buffer, pH 7.4
in vitro = conditions: human, Caco-2
[3] = Volume of distribution at steady state in dog blood at 4 umol/kg, iv and 10 umol/kg, po; format: ADME, organism-based, Canis lupus familiaris; conditions: read-out: Vdss
[4] = Intrinsic clearance in dog hepatocytes assessed per million cells; format: ADME, cell-based, Canis lupus familiaris, Hepatocyte
[5] = Oral bioavailability in dog blood at 10 umol/kg; format: ADME, organism-based, Canis lupus familiaris
Hepatocyte = experiment: Intrinsic clearance in mouse hepatocytes assessed per million cells; format: ADME, cell-based
[6] = Clearance in dog blood at 4 umol/kg, iv and 10 umol/kg, po; format: ADME, organism-based, Canis lupus familiaris
[7] = Oral bioavailability in hairy mouse blood at 30 umol/kg; format: ADME, organism-based
[8] = Clearance in hairy mouse blood at 5 umol/kg, iv and 30 umol/kg, po; format: ADME, organism-based
[9] = Volume of distribution at steady state in hairy mouse blood at 5 umol/kg, iv and 30 umol/kg, po; format: ADME, organism-based; conditions: read-out: Vdss

| AUC [1] | hepatocyte CLint [2] | logD (physchem) | Papp A→B at 2 h, 10 µM (in vitro) | Structure (SMILES) | also measured |
| --- | --- | --- | --- | --- | --- |
|  |  | 2 |  | CC(c1cc(C(=O)N(C)C)cc2c(=O)cc(N3CCOCC3)oc12)N1CCOc2c(F)cc(F)cc21 (configuration not stated) |  |
|  | 12 µL/min/1e6 cells | 1.9 |  | CN(C)C(=O)c1cc(CN2CCOc3ccc(F)cc32)c2oc(N3CCOCC3)cc(=O)c2c1 |  |
|  | 15 µL/min/1e6 cells | 2.3 |  | C[C@@H]1CN(c2cc(=O)c3cc(C(=O)N(C)C)cc(CN4CCOc5ccc(F)cc54)c3o2)CCO1 |  |
|  | < 3 µL/min/1e6 cells | 1.5 |  | CN(C)C(=O)c1cc(CN(CC#N)c2cc(F)cc(F)c2)c2oc(N3CCOCC3)cc(=O)c2c1 |  |
| 3.9 µM·h | < 1 µL/min/1e6 cells | 1.7 | 6.5 ×10⁻⁶ cm/s | CN(C)C(=O)c1cc(CN2CCOc3c(F)cccc32)c2oc(N3CCOCC3)cc(=O)c2c1 | Vd [3]: 1.6 L/kg; hepatocyte CLint [4]: 4 µL/min/1e6 cells; bioavailability [5]: 63%; hepatocyte CLint (Hepatocyte): 21 µL/min/1e6 cells; clearance [6]: 13 mL/min/kg; bioavailability [7]: 47%; clearance [8]: 49 mL/min/kg; Vd [9]: 1.9 L/kg |

Second part, the compound before the results:

| Structure (SMILES) | AUC [1] | hepatocyte CLint [2] | logD (physchem) | Papp A→B at 2 h, 10 µM (in vitro) | also measured |
| --- | --- | --- | --- | --- | --- |
| CN(C)C(=O)c1cc(CN(C)c2cc(F)cc(F)c2)c2oc(N3CCOCC3)cc(=O)c2c1 | 4.9 µM·h | < 5 µL/min/1e6 cells |  |  |  |
| C[C@@H]1CN(c2cc(=O)c3cc(C(=O)N(C)C)cc(CN(C)c4cc(F)cc(F)c4)c3o2)CCO1 | 15.3 µM·h | 5 µL/min/1e6 cells | 2.7 | 55 ×10⁻⁶ cm/s |  |
| CN(C)C(=O)c1cc(CN2CCOc3c(F)cc(F)cc32)c2oc(N3CCOCC3)cc(=O)c2c1 | 4.4 µM·h | 7 µL/min/1e6 cells | 2.1 | 9 ×10⁻⁶ cm/s |  |
| C[C@@H]1CN(c2cc(=O)c3cc(C(=O)N(C)C)cc(CN4CCOc5c(F)cc(F)cc54)c3o2)CCO1 |  | 8 µL/min/1e6 cells | 2.3 | 25 ×10⁻⁶ cm/s |  |
| CN(C)C(=O)c1cc(CN(CCC#N)c2cc(F)cc(F)c2)c2oc(N3CCOCC3)cc(=O)c2c1 |  | < 3 µL/min/1e6 cells | 1.8 |  |  |
| C[C@@H]1CN(c2cc(=O)c3cc(C(=O)N(C)C)cc(CN4CCOc5c(F)cccc54)c3o2)CCO1 | 7.3 µM·h | < 3 µL/min/1e6 cells | 2 | 28 ×10⁻⁶ cm/s |  |
| C[C@@H]1CN(c2cc(=O)c3cc(C(=O)N4CCOCC4)cc(CN4CCOc5c(F)cccc54)c3o2)CCO1 | 1 µM·h | < 3 µL/min/1e6 cells |  |  |  |
| C[C@@H]1CN(c2cc(=O)c3cc(C(=O)N4CCOCC4)cc(CN4CCOc5ccc(F)cc54)c3o2)CCO1 | 2.8 µM·h | 4 µL/min/1e6 cells | 2 | 11 ×10⁻⁶ cm/s |  |
| C[C@@H]1CN(c2cc(=O)c3cc(C(=O)N4CCOCC4)cc(CN4CCOc5c(F)cc(F)cc54)c3o2)CCO1 |  | < 3 µL/min/1e6 cells |  |  |  |
| COCCN(Cc1cc(C(=O)N(C)C)cc2c(=O)cc(N3CCO[C@H](C)C3)oc12)c1cc(F)cc(F)c1 |  | 14 µL/min/1e6 cells | 2.2 | 14 ×10⁻⁶ cm/s |  |
| COCCN(Cc1cc(C(=O)N(C)C)cc2c(=O)cc(N3CCOCC3)oc12)c1cc(F)cc(F)c1 | 2.4 µM·h | 8 µL/min/1e6 cells | 2.1 | 11 ×10⁻⁶ cm/s |  |
